Values of other authors, collected in publication PMC7395068, “The evolution of strategies to minimise the risk of human drug-induced liver injury (DILI) in drug discovery and development” (Archives of Toxicology, 2020).
Counter-ions that a name gives are not always drawn. Like-named read-outs stand apart in the source and are kept apart here.

Conditions: cited from earlier work
[1] = binary in vivo DILI call given beside the severity category, ref Chen 2016
[2] = human DILI concern category (LTKB DILIrank), ref Chen 2016

Row | SMILES | DILI +VE (5-8), DILI -VE (-4) [1] | DILI severity category [2] | DILI +VE (5-8), DILI -VE (-4) (in vivo) | DILI severity category (in vivo)
1 | COc1c(C)c2c(c(O)c1C/C=C(\C)CCC(=O)OCCN1CCOCC1)C(=O)OC2 [mycophenolate mofetil] | +VE | vLess-DILI-Concern |  | 
2 | COc1c(C)c2c(c(O)c1C/C=C(\C)CCC(=O)O)C(=O)OC2 [mycophenolic acid] | -VE | Ambiguous DILI-concern |  | 
3 | CCCCCCC(C)(C)c1cc(O)c2c(c1)OC(C)(C)C1CCC(=O)CC21 (stereo not drawn) [nabilone] | -VE | vNo-DILI-Concern |  | 
4 | COc1ccc2cc(CCC(C)=O)ccc2c1 [nabumetone] | -VE | Ambiguous DILI-concern |  | 
5 | CCOc1ccc2ccccc2c1C(=O)N[C@@H]1C(=O)N2[C@@H]1SC(C)(C)[C@@H]2C(=O)O [nafcillin] | +VE | vLess-DILI-Concern |  | 
6 | C=C1CC[C@@]2(O)[C@H]3Cc4ccc(O)c5c4[C@@]2(CCN3CC2CC2)[C@H]1O5 [nalmefene hydrochloride] | -VE | Ambiguous DILI-concern |  | 
7 | CCCCCCCCCC(=O)O[C@H]1CC[C@H]2[C@@H]3CCC4=CC(=O)CC[C@@H]4[C@H]3CC[C@]12C [nandrolone decanoate] | +VE | vMost-DILI-Concern |  | 
8 | CNS(=O)(=O)CCc1ccc2[nH]cc(C3CCN(C)CC3)c2c1 [naratriptan] | -VE | Ambiguous DILI-concern |  | 
9 | COc1nc(N)nc2c1ncn2[C@@H]1O[C@H](CO)[C@@H](O)[C@@H]1O [nelarabine] | +VE | vLess-DILI-Concern |  | 
10 | NC[C@@H]1O[C@H](O[C@H]2[C@@H](O)[C@H](O[C@@H]3[C@@H](O)[C@H](N)C[C@H](N)[C@H]3O[C@H]3O[C@H](CN)[C@@H](O)[C@H](O)[C@H]3N)O[C@@H]2CO)[C@H](N)[C@@H](O)[C@@H]1O [neomycin] |  |  | -VE | vNo-DILI-Concern
11 | CN(C)Cc1ccc(CSCCN/C(=C\[N+](=O)[O-])NCc2ccc3c(c2)OCO3)o1 [niperotidine] | +VE | vMost-DILI-Concern |  | 
12 | CC(=O)Oc1ccccc1C(=O)Nc1ncc([N+](=O)[O-])s1 [nitazoxanide] | -VE | vNo-DILI-Concern |  | 
13 | O=C1CCCC(=O)C1C(=O)c1ccc(C(F)(F)F)cc1[N+](=O)[O-] [nitisinone] | -VE | Ambiguous DILI-concern |  | 
14 | Cc1nc([N+](=O)[O-])cn1-c1ccc([N+](=O)[O-])cc1 [nitrefazole] | +VE | vMost-DILI-Concern |  | 
15 | C#C[C@]1(OC(C)=O)CC[C@H]2[C@@H]3CCC4=CC(=O)CC[C@@H]4[C@H]3CC[C@@]21C [norethindrone acetate] | -VE | vNo-DILI-Concern |  | 
16 | C[C@@H]1[C@H](O)[C@@H](C)/C=C/C=C/CC/C=C/C=C/C=C/C=C/C(O[C@H]2O[C@H](C)[C@@H](O)[C@H](N)[C@@H]2O)CC2O[C@](O)(CC(O)C(O)CCC(O)CC(O)CC(O)CC(=O)O[C@H]1C)CC(O)C2C(=O)O (stereo partly drawn) [nystatin] | -VE | vNo-DILI-Concern |  | 
17 | O=C(O)c1cc(/N=N/c2ccc(O)c(C(=O)O)c2)ccc1O [olsalazine] | +VE | vLess-DILI-Concern |  | 
18 | Cc1nccn1CC1CCc2c(c3ccccc3n2C)C1=O (stereo not drawn) [ondansetron] | +VE | vLess-DILI-Concern |  | 
19 | Cc1onc(-c2ccccc2)c1C(=O)N[C@@H]1C(=O)N2[C@@H]1SC(C)(C)[C@@H]2C(=O)O [oxacillin] | +VE | vLess-DILI-Concern |  | 
20 | O=C(O)C(=O)O.[NH-][C@@H]1CCCC[C@H]1[NH-].[Pt+2] [oxaliplatin] | +VE | vMost-DILI-Concern |  | 
21 | O=C1Nc2ccc(Cl)cc2C(c2ccccc2)=NC1O (stereo not drawn) [oxazepam] |  |  | -VE | Ambiguous DILI-concern
22 | COc1ccc2c3c1O[C@H]1C(=O)CC[C@@]4(O)[C@@H](C2)N(C)CC[C@]314 [oxycodone] |  |  | -VE | vNo-DILI-Concern
23 | O=C1Nc2ccccc2C1(c1ccc(O)cc1)c1ccc(O)cc1 [oxyphenisatin] |  |  | +VE | vMost-DILI-Concern

Row | SMILES | DILI +VE (5-8), DILI -VE (-4) [1] | DILI severity category [2] | DILI +VE (5-8), DILI -VE (-4) (in vivo) | DILI severity category (in vivo)
24 | CC[C@H](C)[C@@H]1NC(=O)[C@H](Cc2ccc(O)cc2)NC(=O)[C@@H](N)CSSC[C@@H](C(=O)N2CCC[C@H]2C(=O)N[C@@H](CC(C)C)C(=O)NCC(N)=O)NC(=O)[C@H](CC(N)=O)NC(=O)[C@H](CCC(N)=O)NC1=O [oxytocin] |  |  | -VE | vNo-DILI-Concern
25 | CONC(=N)c1ccc(-c2ccc(-c3ccc(C(=N)NOC)cc3)o2)cc1 [pafuramidine] | +VE | vMost-DILI-Concern |  | 
26 | O=C1c2cccc3c2[C@H](CCC3)CN1[C@@H]1CN2CCC1CC2 [palonosetron] | -VE | Ambiguous DILI-concern |  | 
27 | CC(=O)O[C@H]1C[C@@H]2CC[C@@H]3[C@H](CC[C@@]4(C)[C@H]3C[C@H]([N+]3(C)CCCCC3)[C@@H]4OC(C)=O)[C@@]2(C)C[C@@H]1[N+]1(C)CCCCC1 [pancuronium] |  |  | -VE | vNo-DILI-Concern
28 | COc1ccnc(C[S+]([O-])c2nc3ccc(OC(F)F)cc3[nH]2)c1OC (stereo not drawn) [pantoprazole] | +VE | vLess-DILI-Concern |  | 
29 | COc1ccc(Cc2nccc3cc(OC)c(OC)cc23)cc1OC [papaverine] |  |  | +VE | vMost-DILI-Concern
30 | C[C@H](/C=C/[C@H](C)C(C)(C)O)[C@H]1CC[C@H]2/C(=C/C=C3C[C@@H](O)C[C@H](O)C3)CCC[C@]12C [paricalcitol] | -VE | Ambiguous DILI-concern |  | 
31 | Nc1nc2[nH]cc(CCc3ccc(C(=O)N[C@@H](CCC(=O)O)C(=O)O)cc3)c2c(=O)[nH]1 [pemetrexed] | -VE | Ambiguous DILI-concern |  | 
32 | CSCC[C@H](NC(=O)[C@H](Cc1c[nH]c2ccccc12)NC(=O)CCNC(=O)OC(C)(C)C)C(=O)N[C@@H](CC(=O)O)C(=O)N[C@@H](Cc1ccccc1)C(N)=O [pentagastrin] |  |  | -VE | vNo-DILI-Concern
33 | N=C(N)c1ccc(OCCCCCOc2ccc(C(=N)N)cc2)cc1 [pentamidine] | +VE | vLess-DILI-Concern |  | 
34 | CC(C)=CCN1CCC2(C)c3cc(O)ccc3CC1C2C (stereo not drawn) [pentazocine] | -VE | vNo-DILI-Concern |  | 
35 | O=C(O)CN(CCN(CC(=O)O)CC(=O)O)CCN(CC(=O)O)CC(=O)O [pentetic acid] | -VE | vNo-DILI-Concern |  | 
36 | CCCC(C)C1(CC)C(=O)NC(=O)NC1=O (stereo not drawn) [pentobarbital] | -VE | Ambiguous DILI-concern |  | 
37 | OC[C@H]1O[C@@H](n2cnc3c2NC=NC[C@H]3O)C[C@@H]1O [pentostatin] | +VE | vMost-DILI-Concern |  | 
38 | CC(=O)CCCCn1c(=O)c2c(ncn2C)n(C)c1=O [pentoxifylline] | -VE | Ambiguous DILI-concern |  | 
39 | FC(F)(F)C(F)(F)C(F)(F)F [perflutren] | -VE | vNo-DILI-Concern |  | 
40 | CCC[C@H](N[C@@H](C)C(=O)N1[C@H](C(=O)O)C[C@@H]2CCCC[C@@H]21)C(=O)OCC [perindopril] | -VE | Ambiguous DILI-concern |  | 
41 | CC1=C(C/C=C(\C)CCC[C@H](C)CCC[C@H](C)CCCC(C)C)C(=O)c2ccccc2C1=O [phytonadione] | -VE | vNo-DILI-Concern |  | 
42 | O=C(O)C[C@H](O)C[C@H](O)/C=C/c1c(C2CC2)nc2ccccc2c1-c1ccc(F)cc1 [pitavastatin] | -VE | Ambiguous DILI-concern |  | 
43 | c1cc(CN2CCCNCCNCCCNCC2)ccc1CN1CCCNCCNCCCNCC1 [plerixafor] | -VE | vNo-DILI-Concern |  | 
44 | CN1C(CSCC(F)(F)F)Nc2cc(Cl)c(S(N)(=O)=O)cc2S1(=O)=O (stereo not drawn) [polythiazide] | -VE | Ambiguous DILI-concern |  | 
45 | CC[C@@H]([C@H](C)O)n1ncn(-c2ccc(N3CCN(c4ccc(OC[C@@H]5CO[C@@](Cn6cncn6)(c6ccc(F)cc6F)C5)cc4)CC3)cc2)c1=O [posaconazole] | -VE | Ambiguous DILI-concern |  | 
